One assay relates to C. elegans adult animals. The assay can be described thus: Lifespan of C. elegans adult animals (Kaplan-Meier survival). It is filed as in vivo.
For the next assay, the system named is Caenorhabditis elegans. The assay can be described thus: Oxidative stress tolerance after paraquat exposure. It is filed as in vivo. To be noted: 10 mM, positive control; over 24 hours post-exposure; negative control (DMSO) declined 41%. The source says:
Still referring to FIG. 1, composition 100 may be configured to improve oxidative stress tolerance, preserve mitochondrial function, support energy production, enhance cellular defense mechanisms against oxidative stress, stimulate endogenous antioxidants and enzymes, reduce oxidative stress and/or mitochondrial oxidative stress, improve mitochondrial function, improve healthspan, improve longevity, improve autophagy, increase autophagy, or the like. Oxidative stress and healthspan disclosed herein are further described below. For the purposes of this disclosure, “oxidative stress” is a physiological state characterized by an imbalance between the production of reactive oxygen species and the body's antioxidant defenses. In a non-limiting example, reactive oxygen species (ROS) can be generated endogenously as byproducts of cellular metabolism; for instance in the mitochondria. In another non-limiting example, ROS can be generated exogenously in the result of environmental pollutants, radiation, cigarette smoking, alcohol, certain foods, and drugs. In a healthy human, the body's antioxidant defenses can neutralize these molecules before they cause significant cellular damage. However, when their production overwhelms the body's capacity to neutralize and eliminate them, they can cause widespread cellular damage. […]

Where [1] appears, read: 50 μM, * p<0.05 vs negative control.
[2] abbreviates: 100 μM, * p<0.05 vs negative control.

This is an account of results in US12121545B2, “Composition for a fecal-derived sterilized postbiotic in anti-aging and neurotherapeutic applications” (priority 2022, dated 2024).

Protocol for C. elegans adult animals: In a embodiments, organisms may include a vehicle control 204. In an embodiment, organisms may be treated with at least 0.05 mg/ml 208 of composition 100 and compared to a “vehicle control,” which as used in this disclosure, may include organisms not treated with composition 100. Lifespan data was represented as the percent of organism surviving over time, known as the Kaplan-Meier Estimate of Survival function.
Chart 212 illustrates the impact of resveratrol 216 at 100 μM; and rapamycin 220 at 50 μM; composition 100 at 0.05 mg/ml 208, 0.25 mg/ml 224, and 1.25 mg/ml 228; resveratrol at 100 μM; and rapamycin at 50 μM. In another non-limiting example, subjects, for instance, C. elegans, may be divided into five groups, with each group receiving a different concentration of composition (0.05 mg/mL 208, 0.25 mg/mL 224, or 1.25 mg/mL 228), vitamin C as a positive control (10 mM), or dimethyl sulfoxide (DMSO) as a negative control (0.05% DMSO).

Take `CO[C@H]1C[C@@H]2CC[C@@H](C)[C@@](O)(O2)C(=O)C(=O)N2CCCC[C@H]2C(=O)O[C@H]([C@H](C)C[C@@H]2CC[C@@H](O)[C@H](OC)C2)CC(=O)[C@H](C)/C=C(\C)[C@@H](O)[C@@H](OC)C(=O)[C@H](C)C[C@H](C)/C=C/C=C/C=C/1C` [Rapamycin, rapamycin]: in the assay on C. elegans adult animals (setting [1]), the “age at 25% Mortality” value was 24.6* days, the “age at 50% Mortality (median lifespan)” value is given as 29.5* days, the “age at 75% Mortality” value is on record as 32.8* days and the “age at 90% Mortality” value is on record as 35.7* days. Also, the “age at 95% Mortality” value in the assay with C. elegans adult animals (setting [1]) is on record as 36.1* days.
On to `Oc1ccc(C=Cc2cc(O)cc(O)c2)cc1` [Resveratrol, resveratrol], for which the “age at 90% Mortality” value in the assay on C. elegans adult animals (100 μM) was found to be 30.2 days. For the same compound, in the assay on C. elegans adult animals (setting [2]), the “age at 25% Mortality” value was 22.4* days, the “age at 50% Mortality (median lifespan)” value is 25.5* days, the “age at 75% Mortality” value is 28.3* days and the “age at 95% Mortality” value is given as 32.3* days.
In the case of `O=C1O[C@H]([C@@H](O)CO)C(O)=C1O` [vitamin C], in the assay on Caenorhabditis elegans, the “average decline after paraquat-induced oxidative stress” value was found to be 25%.
